Measured values from US20170049843A1, “Hepatocyte Growth Factor Mimics as Therapeutic Agents” (WASHINGTON STATE UNIVERSITY, priority 2011, published 2017).
Structures can show the parent of a compound that is named as a salt. Where a SMILES comes first, the peptide text is derived from it. Where no end group is shown, it is not given here. [ ]: non-standard residue; d: D form. dNle = CCCC[C@@H](N)C(=O)O; Ahx = NCCCCCC(=O)O; GABA = NCCCC(=O)O

What was measured:
[1] = biological target: T1, HGF (Homo sapiens, UniProt P14210); experiment: HGF binding, competition with 3H-Hinge
T1 construct: purchased R&D Systems (Minneapolis, Minn.)
Procedure: The binding of 6-AH analogs to HGF was assessed by competition using a soluble binding assay. 250 μl of PBS containing human HGF (1.25 ng) were incubated with ^3H-Hinge, the central dimerization domain of HGF, in the presence of varying concentrations of 6-AH analogs between 10^−13 M to 10^−7M (half-log dilutions) for 40 min at 37° C. The incubates were then spun through Bio-Gel P6 spin columns (400 μl packed volume) for 1 min to separate free and bound ^3H-Hinge and the eluent was collected. Five milliliters of scintillation fluid was added to the eluent, which contained the HGF bound ^3H-Hinge, and was then counted using scintillation counter. Total disintegrations per minute of bound ^3H-Hinge were calculated based on machine counting efficiency. The Ki values for the binding of the peptides were determined using the Prism 5. Competition binding curves were performed in triplicate.

[2] = tested on: MDCK cells; experiment: Inhibition of HGF-dependent scattering in MDCK cells; assay type: cell-based, canine; details: for inhibition of HGF-dependent scattering in MDCK cells: HGF 20 ng/ml, 48 h
Procedure: (§1) MDCK cells were grown to 100% confluency on the coverslips in six-well plates and washed twice with PBS. The confluent coverslips were then aseptically transferred to new six well plates containing 900 μl serum free DMEM. Norleual, Hinge peptide, and/or HGF (20 ng/ml) were added to appropriate wells. Control wells received PBS vehicle. Plates were incubated at 37° C. with 5% CO2 for 48 hours. Media was removed and cells were fixed with methanol. Cells were stained with Diff-Quik Wright-Giemsa (Dade-Behring, Newark, Del.) and digital images were taken. Coverslips were removed with forceps and more digital images were captured. Pixel quantification of images was achieved using Image J and statistics were performed using Prism 5 and InStat v.3.05.
as §1, with “h.” for “hours.”, “v.3.05 (GraphPad; San Diego, Calif.).” for “v.3.05.”

[3] = biological target: T1, HGF; experiment: HGF dimerization; assay type: biochemical; details: analog at 10^−10M, 30 minute incubation with heparin
Procedure: HGF dimerization was assessed using PAGE followed by silver staining (Kawas et al., 2011). Human HGF at a concentration of 0.08 ng/μl with or without 6-AH analogs was incubated with heparin at a final concentration of 5 μg/ml. Loading buffer was then added to each sample and the mixture separated by native PAGE using gradient Criterion XT precast gels (4-12% Bis-Tris; Biorad Laboratories, Hercules, Calif.). Next the gel was silver stained for the detection of the HGF monomers and dimers. Bands were quantitated from digital images using a UVP phosphoimager (Upland, Calif.).

[4] = tested on: Met; experiment: Inhibition of HGF-dependent Met phosphorylation in HEK293 cells; assay type: cell-based, human; details: 10 min
Procedure: HEK293 cells were seeded in 6 well tissue culture plates and grown to 95% confluency in DMEM containing 10% FBS. The cells were serum deprived for 24 h prior to the treatment to reduce the basal levels of phospho-Met. Following serum starvation, cocktails comprised of vehicle and HGF with/without 6-AH analogs were prepared and pre-incubated for 30 min at room temperature. The cocktail was then added to the cells for 10 min to stimulate the Met receptor and downstream proteins. Cells were harvested using RIPA lysis buffer (Millipore; Billerica, Mass.) fortified with phosphatase inhibitor cocktails 1 and 2 (Sigma-Aldrich; St. Louis, Mo.). The lysate was clarified by centrifugation at 15,000 n×g for 15 min, protein concentrations were determined using the BCA total protein assay (Pierce), and then appropriate volumes of the lysates were diluted with 2× reducing Laemmli buffer and heated for ten min at 95° C. Samples containing identical amounts of protein were resolved using SDS-PAGE (Criterion, BioRad Laboratories), transferred to nitrocellulose, and blocked in Tris-buffered saline (TBS) containing 5% milk for 1 h at room temperature. The phospho-Met antibody were added to the blocking buffer at a final concentration of 1:1000 and incubated at 4° C. overnight with gentle agitation. The membranes were then washed several times with water and TBS ([…]), a 1:5000 dilution of horseradish-peroxidase conjugated goat anti-rabbit antiserum was added, and the membranes further incubated for 1 h at room temperature. Proteins were visualized using the Supersignal West Pico Chemiluminescent Substrate system (Pierce, Fenton, Mo.) and molecular weights determined by comparison to protein ladders (BenchMark, Invitrogen, and Kaleidoscope, BioRad). Film images were digitized and analyzed using a UVP phosphoimager.

[5] = tested on: MDCK cells; experiment: HGF-dependent MDCK cell proliferation (MTT); assay type: cell-based, canine; details: 10^−10 M, 4 days, HGF 10 ng/ml
Procedure: 5000 MDCK cells were seeded into the wells of a 96 well plates in 10% FBS DMEM. To induce cellular quiescence, the cells were serum deprived for 24 h prior to initiating the treatments. Following serum starvation, 10 ng/ml HGF alone and with various concentrations of 6-AH analogs or PBS vehicle were added to the media. The cells were allowed to grow under these conditions for 4 days with a daily addition of 6-AH analogs. On the fourth day, 1 mg/ml of 1-(4, 5-Dimethylthiazol-2-yl) 3, 5-diphenylformazan reagent (MTT, Sigma-Aldrich) prepared in PBS was added to the cells and incubated for 4 h. Dimethyl sulfoxide diluted in a 0.01M glycine buffer was added to solubilize the cell membranes and the absorbance of reduced MTT in the buffer was quantitated at 590 nm using a plate reader (Biotek Synergy 2, Winooski, Vt.). HGF-dependent proliferation was determined by subtracting the basal proliferation (in the absence of HGF) from total proliferation rates in groups containing HGF.

[6] = Blood stability studies; assay type: in vitro ADME, rat; details: rat, heparinized whole blood, heparinized rat blood, 37° C., single phase exponential decay; read-out: stability t1/2 in blood
Procedure: At the end of each incubation, 20 μL of Nle^1-AngIV (100 μg/mL) was added to each sample as an internal standard. […] All samples were centrifuged at 4° C., 2300× g for 5 min and the supernatants were transferred to clean tubes.
Samples were then separated by HPLC on an Econosphere C18 (100 mm×2.1 mm) from Grace Davison Discovery Science (Deerfield, Ill.). […] The mobile phase consisted of HPLC water (Sigma St. Louis, Mo.) with 0.1% trifluoroacetic or 0.1% heptafluorobutyric acid (Sigma St. Louis, Mo.) and varying concentrations of ACN or methanol. Separation was carried out using a gradient method, at ambient temperature and a flow rate of 0.3 mL/min (see below for more information). Stability half-lives were determined assuming a normal single phase exponential decay using Prism 5 graphical/statistical program (GraphPad, San Diego, Calif.).

[7] = tested on: scopolamine treated rats; experiment: Morris water maze, scopolamine amnesia model; assay type: in vivo, rat; details: for mean latency to find the pedestal, final day of training / mean latency to find the pedestal, fourth day of training / mean latency to find the pedestal, day one of training: icv, scopolamine 70 nmol, Dihexa 300 pmol, Hinge 300 pmol; for mean latency to find the pedestal, final day of training / mean latency to find the pedestal, fourth day of training: vehicle 43.0 s; for mean latency to find the pedestal, day one of training: vehicle 89.3 s
[8] = tested on: hippocampal neurons; experiment: Spinogenesis in mRFP-β-actin transfected dissociated hippocampal neurons; assay type: cell-based, rat
Procedure: Hippocampal neurons ([…] cells per square cm) were cultured from P1 Sprague Dawley rats on plates coated with poly-L-lysine from Sigma (St. Louis, Mo.; molecular weight 300,000). Hippocampal neurons were maintained in Neurobasal A media from Invitrogen (Carlsbad, Calif.) supplemented with B27 from Invitrogen, 0.5 mM L-glutamine, and […] cytosine-D-arabinofuranoside from Sigma added at 2 days in vitro. Hippocampal neurons were then cultured a further 3-7 days, at which time they were either transfected or treated with various pharmacological reagents as described in (Wayman, Davare et al. 2008).
Neurons were transfected with mRFP-β-actin on day in vitro 6 (DIV6) using LipofectAMINE™ 2000 (Invitrogen) according to the manufacturer's protocol. This protocol yielded the desired 3-5% transfection efficiency thus enabling the visualization of individual neurons. Higher efficiencies obscured the dendritic arbor of individual neurons. Expression of fluorescently tagged actin allowed clear visualization of dendritic spines, as dendritic spines are enriched in actin. On DIV7 the cells were treated with vehicle (H20) or peptides (as described in the text) added to media. On DIV12 the neurons were fixed (4% paraformaldehyde, 3% sucrose, 60 mM PIPES, 25 mM HEPES, 5 mM EGTA, 1 mM MgCl2, pH 7.4) for 20 min at room temperature and mounted. Slides were dried for at least 20 hours at 4° C. and fluorescent images were obtained with Slidebook 4.2 Digital Microscopy Software driving an Olympus IX81 inverted confocal microscope with a 60× oil immersion lens, NA 1.4 and resolution 0.280 μm Dendritic spine density was measured on primary and secondary dendrites at a distance of at least 150 μm from the soma. Five 50 μm long segments of dendrite from at least 10 neurons per data point were analyzed for each data point reported. Each experiment was repeated at least three times using independent culture preparations. Dendrite length was determined using the National Institutes of Health's Image J 1.41o program (NIH, Bethesda, Md.) and the neurite tracing program Neuron J (Meijering, Jacob et al. 2004) Spines were manually counted.
Hippocampal neurons (2×10^5 cells per square centimeter) were cultured from P1-2 Sprague Dawley rats on plates coated with poly-L-lysine from Sigma (St. Louis, Mo.; molecular weight 300,000). Hippocampal neurons were maintained in Neurobasal A media from Invitrogen (Carlsbad, Calif.) supplemented with B27 from Invitrogen, 0.5 mM L-glutamine, and […] cytosine-D-arabinofuranoside from Sigma added at 2 days in vitro. Hippocampal neurons were then cultured a further 3-7 days, at which time they were either transfected or treated with various pharmacological reagents as described in the text or figure legends.

[9] = tested on: hippocampal neurons; experiment: Whole-cell recordings of mEPSCs in dissociated hippocampal neurons; assay type: cell-based, rat; design: mean mEPSC frequency: unit not given beside the values; details: 5 days; Hinge 10^−12 M, HGF 10 ng/ml, Dihexa 10^−12 M, alone or combined; vehicle 5.31±0.35

T1 sequence (P14210 32-728): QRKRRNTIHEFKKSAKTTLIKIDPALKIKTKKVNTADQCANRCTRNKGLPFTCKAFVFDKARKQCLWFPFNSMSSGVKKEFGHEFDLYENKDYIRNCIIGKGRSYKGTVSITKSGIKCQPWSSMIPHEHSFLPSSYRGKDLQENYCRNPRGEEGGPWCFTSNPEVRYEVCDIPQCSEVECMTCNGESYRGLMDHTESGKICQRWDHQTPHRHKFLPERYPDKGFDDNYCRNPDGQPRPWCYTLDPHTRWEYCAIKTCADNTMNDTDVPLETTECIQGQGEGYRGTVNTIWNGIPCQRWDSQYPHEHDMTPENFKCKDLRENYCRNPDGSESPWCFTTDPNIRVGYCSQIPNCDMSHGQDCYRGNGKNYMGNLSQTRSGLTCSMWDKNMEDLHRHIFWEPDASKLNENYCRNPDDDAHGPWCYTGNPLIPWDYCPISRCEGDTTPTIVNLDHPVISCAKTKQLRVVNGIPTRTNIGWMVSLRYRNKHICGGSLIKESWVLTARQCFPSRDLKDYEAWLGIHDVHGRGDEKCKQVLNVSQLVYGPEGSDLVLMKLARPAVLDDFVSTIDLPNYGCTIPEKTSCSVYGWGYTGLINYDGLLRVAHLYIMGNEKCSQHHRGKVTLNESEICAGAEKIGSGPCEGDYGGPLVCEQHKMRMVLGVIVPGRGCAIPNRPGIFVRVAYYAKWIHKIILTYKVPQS

Compound: CCCC[C@@H](N)C(=O)N[C@@H](CCSC)C(=O)N[C@H](C(=O)NCCCCCC(N)=O)[C@@H](C)CC [D-Nle-Met-Ile-NH—(CH2)5—CONH2] (H-[dNle]MI[Ahx]-NH2)
- affinity for HGF (in words) [1]: low affinity for HGF
- inhibition of HGF-dependent scattering in MDCK cells [2]: not different
- inhibition of HGF dimerization [3]: unable to block dimerization at the concentration tested
- inhibition of HGF-dependent Met phosphorylation [4]: no ability to effect on Met activation
- inhibition of HGF-dependent Met phosphorylation ([4]; listed as Met): not different than the HGF group

Compound: CCCC[C@@H](N)C(=O)N[C@@H](Cc1c[nH]c2ccccc12)C(=O)N[C@H](C(=O)NCCCCCC(N)=O)[C@@H](C)CC [D-Nle-Trp-Ile-NH—(CH2)5—CONH2] (H-[dNle]WI[Ahx]-NH2)
- affinity for HGF (in words) [1]: moderate affinity for HGF
- inhibition of HGF-dependent scattering in MDCK cells [2]: different from the HGF alone group but not different from the control group
- inhibition of HGF dimerization [3]: intermediate inhibition of dimerization
- inhibition of HGF dimerization ([3]; listed as Trp): statistically different than the HGF treated group
- inhibition of HGF-dependent Met phosphorylation [4]: intermediate inhibitory activity
- inhibition of HGF-dependent MDCK cell proliferation [5]: inhibitory activity, albeit less than that observed with the most potent analogs

Compound: CCCC[C@H](N)C(=O)N[C@@H](Cc1ccc(O)cc1)C(=O)N[C@H](CN[C@@H](Cc1c[nH]cn1)C(=O)N1CCC[C@H]1C(=O)N[C@@H](Cc1ccccc1)C(=O)O)CC(C)C [Norleual, Nle-Tyr-Leu-Ψ-(CH2—NH2)^3-4-His-Pro-Phe, reference compound]
- half-life [6]: < 5 min

Compound: CN1[C@@H]2C[C@@H](OC(=O)[C@H](CO)c3ccccc3)C[C@H]1[C@@H]1O[C@@H]12 [scopolamine, scopolamine hydrobromide, reference compound]
- mean latency to find the pedestal, final day of training [7]: 84.8 s
- mean latency to find the pedestal, fourth day of training [7]: 102.4 s
- mean latency to find the pedestal, day one of training [7]: 114.7 s

Compound: DYIRNC (Synthetic hinge peptide) [HGF antagonist peptide representing the dimerization (hinge) domain of HGF; also printed KDYIRN, reference compound]
- mean latency to find the pedestal, final day of training [7]: 46.1 s
- mean latency to find the pedestal, fourth day of training [7]: 78.3 s
- mean latency to find the pedestal, day one of training [7]: 111.1 s
- inhibition of scattering of MDCK cells by Hinge [2]: inhibit scattering of Madin-Darby canine kidney (MDCK) cells
- inhibition of spine formation in stimulated neurons ([8]; neurons stimulated with 10 ng/ml HGF, 10^−12 M Nle1-AngIV or 10^−12 M Dihexa): effectively inhibit spine formation
- effect of Hinge alone on basal spinogenesis ([8]; wide range of doses): no effect on spinogenesis over a wide range of doses
- mean mEPSC frequency [9]: 4.51±0.47

Compound: Nle-YIH-amide
- dendritic spine numbers ([8]; 10^-8 and 10^-10 M): increased spine numbers

Compound: [GABA]-Tyr-Ile [GABA-YI]
- time in the target quadrant, day 9 probe trial ([7]; analog 1 nmol icv after scopolamine): different than all the other treated groups
- dendritic spine numbers ([8]; 10^-8 and 10^-10 M): increased spine numbers

Compound: acetyl-Nle-YIH
- dendritic spine numbers ([8]; 10^-8 and 10^-10 M): increased spine numbers
- dendritic spine numbers ([8]; concentrations lower than 10^-10 M): increasing spine numbers at even lower concentrations
